In brackets after ≈: the same amount, converted by molar mass.
What was measured:
Assay type in all cases: physicochemical
[1] = Solubility of crystalline Form 1 in aqueous and biorelevant media
[2] = Solubility of crystalline Form 1 in organic solvents; settings: organic solvent or mixture
[3] = Solid form chemical and physical stability

## [2H]C([2H])([2H])CC(=O)c1cnc(NC(=O)C2CC2)cc1Nc1cccc(-c2ncn(C([2H])([2H])[2H])n2)c1OC [Form 1, N-(4-((2-methoxy-3-(1-(methyl-d3)-1H-1,2,4-triazol-3-yl)phenyl)amino)-5-(propanoyl-3,3,3-d3)pyridin-2-yl) cyclopropanecarboxamide]
[1]; in FaSSIF
  solubility: 1 to 2 µg/mL (≈ 2.34 to 4.69 µM)
[1]; in FeSSIF
  solubility: 30 to 50 µg/mL (≈ 70.3 to 117 µM)
[1]; simulated gastric fluid, in SGF
  solubility: 3970 to 4280 µg/mL (≈ 9310 to 10000 µM)
[2]; in MeOH
  solubility: < 3000 µg/mL
[2]; in MeOH/DCM (1/1)
  solubility: > 43000 µg/mL
[2]; in THF
  solubility: < 17000 µg/mL
[2]; in acetone
  solubility: < 3000 µg/mL
[2]; in acetonitrile
  solubility: < 1000 µg/mL
[2]; in ethanol
  solubility: < 1000 µg/mL
[2]; in ethyl acetate
  solubility: < 1000 µg/mL
[2]; in heptane
  solubility: < 1000 µg/mL
[2]; in isopropyl alcohol
  solubility: < 1000 µg/mL
[2]; in methyl t-butyl ether
  solubility: < 1000 µg/mL
[3]; 40° C./75% RH
  time chemically and physically stable: at least 10 days
[3]; 60° C.
  time chemically and physically stable: at least 10 days

Reference: patent publication US20260138965A1, “CRYSTALLINE FORMS OF A TYK2 INHIBITOR AND USES THEREOF” (Alumis Inc., priority 2022, published 2026)
